According to ChEMBL document CHEMBL3885861, “Open TG-GATES”:

Organism: Rattus norvegicus
Assay: Open TG-GATES - Regimen: Single
Type: toxicity, organism-based, Sprague-Dawley
Design: regimen Single, gender Male, age 6 weeks
Details: in vivo, po, 0 mg/kg, route gavage, dose level Control; for APTT / Bas / Eos / Fbg / Hb / Ht / Lym / MCH / MCHC / MCV / Mono / Neu / PT / Plat / RBC / Ret / WBC: tissue Blood; for KIDNEY_L / KIDNEY_R / KIDNEY_TOTAL: tissue Kidney; for LIVER: tissue Liver; for A/G / ALP / ALT / AST / BUN / CRE / Ca / Cl / DBIL / GLC / IP / K / LDH / Na / PL / RALB / TBIL / TC / TG / TP / gamma-GTP: tissue Plasma

With `COc1ccc(O)c(C(C)(C)C)c1.COc1ccc(O)cc1C(C)(C)C` [BUTYLATED HYDROXYANISOLE] the TERMINAL_BW (3 h) was 208.5 g, the APTT (3 h) was 13.3 s and the Bas (3 h) was 0.2%. The Eos (3 h) was 0.7%, the Fbg (3 h) was 265.2 mg/dL and the Hb (3 h) was 13.1 g/dL. For the same compound, the Ht (3 h) was 38.4%, the Lym (3 h) was 74% and the MCH (3 h) was 21.2 pg. The MCHC (3 h) was 34%, the MCV (3 h) was 62.4 fL and the Mono (3 h) was 3%. The Neu (3 h) was 21.1%, the PT (3 h) was 11.5 s and the Plat (3 h) was 132.5 x10_4/uL. The RBC (3 h) was 616.8 x10_4/ul, the Ret (3 h) was 7.8% and the WBC (3 h) was 93.2 x10_2/uL. It also gave a KIDNEY_L (3 h) of 0.9 g, a KIDNEY_R (3 h) of 0.8 g and a KIDNEY_TOTAL (3 h) of 1.7 g. The LIVER (3 h) was 9 g, the A/G (3 h) was 0.8 and the ALP (3 h) was 1750 IU/L. It also gave an ALT (3 h) of 41.4 IU/L, an AST (3 h) of 76.4 IU/L and a BUN (3 h) of 10.6 mg/dL. For the same compound, the CRE (3 h) was 0.2 mg/dL, the Ca (3 h) was 11.2 mg/dL and the Cl (3 h) was 106.4 meq/L. The DBIL (3 h) was 0.03 mg/dL, the GLC (3 h) was 171.8 mg/dL and the IP (3 h) was 8.9 mg/dL. For the same compound, the K (3 h) was 4.4 meq/L, the LDH (3 h) was 72.2 IU/L and the Na (3 h) was 141 meq/L. It also gave a PL (3 h) of 153.8 mg/dL, an RALB (3 h) of 2.6 g/dL and a TBIL (3 h) of 0.076 mg/dL. It also gave a TC (3 h) of 80.8 mg/dL, a TG (3 h) of 84.6 mg/dL and a TP (3 h) of 5.6 g/dL. The gamma-GTP (3 h) was 1.2 IU/L, the TERMINAL_BW (6 h) was 202.6 g and the APTT (6 h) was 16.8 s. It also gave a Bas (6 h) of 0.2%, an Eos (6 h) of 0.7% and a Fbg (6 h) of 263 mg/dL. It also gave a Hb (6 h) of 13.3 g/dL, a Ht (6 h) of 39% and a Lym (6 h) of 75.4%. For the same compound, the MCH (6 h) was 21.3 pg, the MCHC (6 h) was 34.2% and the MCV (6 h) was 62.2 fL. It also gave a Mono (6 h) of 2%, a Neu (6 h) of 20.9% and a PT (6 h) of 12.6 s. It also gave a Plat (6 h) of 145.4 x10_4/uL, an RBC (6 h) of 626.6 x10_4/ul and a Ret (6 h) of 7.6%. It also gave a WBC (6 h) of 97.7 x10_2/uL, a KIDNEY_L (6 h) of 0.9 g and a KIDNEY_R (6 h) of 0.9 g. It also gave a KIDNEY_TOTAL (6 h) of 1.8 g, an LIVER (6 h) of 8.1 g and an A/G (6 h) of 0.8. For the same compound, the ALP (6 h) was 1507 IU/L, the ALT (6 h) was 33.8 IU/L and the AST (6 h) was 67.8 IU/L. It also gave a BUN (6 h) of 7.2 mg/dL, a CRE (6 h) of 0.2 mg/dL and a Ca (6 h) of 10.9 mg/dL. For the same compound, the Cl (6 h) was 109 meq/L, the DBIL (6 h) was 0.026 mg/dL and the GLC (6 h) was 179 mg/dL. It also gave an IP (6 h) of 10 mg/dL, a K (6 h) of 4.1 meq/L and an LDH (6 h) of 54.8 IU/L. It also gave a Na (6 h) of 142.6 meq/L, a PL (6 h) of 127.8 mg/dL and an RALB (6 h) of 2.6 g/dL. The TBIL (6 h) was 0.074 mg/dL, the TC (6 h) was 73.8 mg/dL and the TG (6 h) was 58.2 mg/dL. For the same compound, the TP (6 h) was 5.7 g/dL, the gamma-GTP (6 h) was 1.2 IU/L and the TERMINAL_BW (9 h) was 203.6 g. The APTT (9 h) was 15.7 s, the Bas (9 h) was 0.2% and the Eos (9 h) was 0.8%. The Fbg (9 h) was 263 mg/dL, the Hb (9 h) was 12.9 g/dL and the Ht (9 h) was 37.6%. The Lym (9 h) was 74.4%, the MCH (9 h) was 21.1 pg and the MCHC (9 h) was 34.2%. For the same compound, the MCV (9 h) was 61.5 fL, the Mono (9 h) was 2.8% and the Neu (9 h) was 21%. The PT (9 h) was 12.8 s, the Plat (9 h) was 142.3 x10_4/uL and the RBC (9 h) was 612 x10_4/ul. For the same compound, the Ret (9 h) was 8.4%, the WBC (9 h) was 68.2 x10_2/uL and the KIDNEY_L (9 h) was 0.9 g. It also gave a KIDNEY_R (9 h) of 0.8 g, a KIDNEY_TOTAL (9 h) of 1.7 g and an LIVER (9 h) of 7.6 g. For the same compound, the A/G (9 h) was 0.9, the ALP (9 h) was 1620.2 IU/L and the ALT (9 h) was 30.8 IU/L. It also gave an AST (9 h) of 66.6 IU/L, a BUN (9 h) of 8.8 mg/dL and a CRE (9 h) of 0.2 mg/dL. For the same compound, the Ca (9 h) was 10.9 mg/dL, the Cl (9 h) was 106.2 meq/L and the DBIL (9 h) was 0.022 mg/dL. The GLC (9 h) was 177.4 mg/dL, the IP (9 h) was 10.2 mg/dL and the K (9 h) was 4.1 meq/L. It also gave an LDH (9 h) of 61.6 IU/L, a Na (9 h) of 141.8 meq/L and a PL (9 h) of 128.2 mg/dL. The RALB (9 h) was 2.6 g/dL, the TBIL (9 h) was 0.088 mg/dL and the TC (9 h) was 76.8 mg/dL. It also gave a TG (9 h) of 39.4 mg/dL, a TP (9 h) of 5.6 g/dL and a gamma-GTP (9 h) of 1.2 IU/L. It also gave a TERMINAL_BW (24 h) of 217.3 g, an APTT (24 h) of 15.1 s and a Bas (24 h) of 0.2%. For the same compound, the Eos (24 h) was 0.7%, the Fbg (24 h) was 275.6 mg/dL and the Hb (24 h) was 13 g/dL. The Ht (24 h) was 38%, the Lym (24 h) was 77% and the MCH (24 h) was 20.9 pg. It also gave an MCHC (24 h) of 34.2%, an MCV (24 h) of 61.2 fL and a Mono (24 h) of 2.3%. It also gave a Neu (24 h) of 19.1%, a PT (24 h) of 12.2 s and a Plat (24 h) of 136.6 x10_4/uL. It also gave an RBC (24 h) of 620.2 x10_4/ul, a Ret (24 h) of 7% and a WBC (24 h) of 82.5 x10_2/uL. It also gave a KIDNEY_L (24 h) of 0.9 g, a KIDNEY_R (24 h) of 0.9 g and a KIDNEY_TOTAL (24 h) of 1.8 g. It also gave an LIVER (24 h) of 9.7 g, an A/G (24 h) of 0.8 and an ALP (24 h) of 1843.2 IU/L. It also gave an ALT (24 h) of 40 IU/L, an AST (24 h) of 70.8 IU/L and a BUN (24 h) of 14.6 mg/dL. The CRE (24 h) was 0.2 mg/dL, the Ca (24 h) was 11.2 mg/dL and the Cl (24 h) was 106.4 meq/L. It also gave a DBIL (24 h) of 0.018 mg/dL, a GLC (24 h) of 173 mg/dL and an IP (24 h) of 7.7 mg/dL. The K (24 h) was 4.3 meq/L, the LDH (24 h) was 63.2 IU/L and the Na (24 h) was 143.6 meq/L. For the same compound, the PL (24 h) was 136.6 mg/dL, the RALB (24 h) was 2.6 g/dL and the TBIL (24 h) was 0.066 mg/dL. It also gave a TC (24 h) of 77.6 mg/dL, a TG (24 h) of 75.8 mg/dL and a TP (24 h) of 5.7 g/dL. For the same compound, the gamma-GTP (24 h) was 1 IU/L.
